Assays:
Assay type in all cases: in vivo, human
patients with PFIC = experiment: TEAEs, MARCH-ON long-term extension
Protocol: Eighty-five patients from MARCH trial enrolled in MARCH-ON (Table 10, FIG. 29A). Forty-seven patients had received Maralixibat (MRX-MRX) and 38 had received placebo (PBO-MRX) during MARCH trial.
Methods: Long-term maintenance of response was assessed for patients who were originally randomized to receive MRX in MARCH and continued with treatment in MARCH-ON (MRX-MRX group; n=33). MRX response was assessed for patients who received PBO in the MARCH study and switched to open-label MRX in MARCH-ON (PBO-MRX group; n=24). Assessments included: pruritus measured by 0-4 scale of ItchRO[Obs], sBA, bilirubin, and growth z-scores, as well as incidence of treatment-emergent adverse events(TEAEs). Baseline (BL) was defined as the start of MRX for each group.

subjects with PFIC [1] = experiment: Total serum bile acid (sBA) level, MARCH-PFIC Phase 3 study; settings: for percentage of sBA response (sBA responders): Week 18 to Week 26
Protocol: Serum bile acids and other cholestasis biomarkers. Blood samples were collected as described in Table 1 to measure levels of cholestasis biomarkers including total sBA, sBA subspecies, C4, FGF-19, and autotaxin as well as liver related parameters. Subjects were encouraged to fast at least 6 hours prior to collection (water intake was permitted if necessary but not recommended). Total sBA and targeted bile acid subspecies were quantified with liquid chromatography mass spectrometry (LC-MS) methodology for exploratory assessments. In addition, screening total sBA will be assessed with an enzymatic assay for inclusion criteria evaluation. C4, a key intermediate in the pathway for bile acid synthesis from cholesterol, will be determined by a validated LC-MS/MS method. The secondary efficacy endpoints are defined as Mean change in total serum bile acid (sBA) level between baseline and average of Weeks 18, 22, and 26 (FIGS. 11-12); 2) Percentage of ItchRO(Obs) responders from Week 15 to Week 26 (FIGS. 13A and 14A); 3) Percentage of sBA responders from Week 18 to Week 26 (FIGS. 13B and 14B). Pruritus responders are defined as a subject having a 4-week average morning ItchRO (Obs) severity change from baseline of […] OR an average severity score of ≤1.0. For the purpose of determining response, the average severity score from the three 4-week periods (weeks 15-18, 19-22 and 23-26) are used. A subject is defined as an ItchRO non-responder if the 4-week average baseline score is missing OR all three 4-week average (post-baseline) scores are missing. sBA responders are defined as a subject having an average sBA level of <102 μmon (applies only if baseline sBA was ≥102 μmon) OR a ≤−75% average percent change from baseline. For the purpose of determining response, the average sBA value from Weeks 18, 22 and 26 values are used. A subject is defined as an sBA non-responder if the baseline sBA value is missing OR sBA values are missing at all 3 time points (i.e., Weeks 18, 22, and 26). p-values comparing maralixibat to placebo treatment groups are calculated using Barnard's exact test.

subjects with PFIC [2] = experiment: Clinician Scratch Scale (CSS) score, MARCH-PFIC Phase 3 study
Excerpt: Clinician Scratch Scale (CSS). The CSS provides an assessment of itch severity. The clinician's assessment of the subject's pruritus focused on scratching and visible damage to the skin as a result of scratching as observed by the physician. The CSS uses a 5-point scale, in which 0 designates no evidence of scratching and 4 designates cutaneous mutilation with bleeding, hemorrhage and scarring. A clinician's assessment of pruritus made by the principal investigator or sub-investigator using the CSS was recorded at screening, baseline, and at additional study visits as outline in Table 2.
For the PFIC Cohort, PFIC Type is included in the model as an additional covariate.
Clinician Scratch Scale (CSS) was scored on a 0-4 scale, where 0=none and 4=cutaneous mutilations, haemorrage, and scarring (worst scratching).

participants with ALGS = experiment: ItchRO(Obs) pruritus in participants with ALGS aged 16 years and older
Protocol: All patients received the daily dose appropriate for their weight, with an adult maximum dose of 28.5 mg/d. ^bBefore age 16 years is defined as the last data point prior to turning 16 years of age. After age 16 years is defined as the first data point after turning 16 years of age.
FIGS. 31A and 31B show a change in ltchRO(Obs) (FIG. 31A) and sBA (FIG. 31B) for participants who initiated MRX treatment at <16 years of age (n=11). Of 11 participants, 9 had ItchRO(Obs) scores available for all time points and were included in the analysis. ^bItchRO(Obs) is a 0-4 scale with >1-point reduction considered clinically meaningful. Mean ItchRO(Obs) was rounded to 1 decimal place. Error bars represent SE. Significance was determined using student t test. ^cMean sBA was rounded to the nearest whole number. Error bars represent SE. ^dAverage of last 2 records prior to age 16 years. ^eAverage of first 2 records after age 16 years. ^fAverage of final 2 records.
FIGS. 32A and 32B show a change in ltchRO(Obs) (FIG. 32A) and sBA (FIG. 32B) for participants who Initiated MRX treatment at ≥16 years of age (n=3). ^aItchRO(Obs) is 0-4 scale with ≥1-point reduction considered clinically meaningful. ^bAverage of final two records.
The efficacy and safety of MRX in participants with ALGS aged ≥16 years transitioning to adult care and participant aged ≥16 years who initiate MRX treatment were studied (FIG. 30). […]

[3] = All PFIC cohort, average of Weeks 18, 22, 26, FIG. 11B
[4] = BSEP deficiency cohort, average of Weeks 18, 22, 26, FIG. 11A
[5] = BSEP deficiency cohort, FIG. 19A

Structure (SMILES): CCCCC1(CCCC)CS(=O)(=O)c2ccc(N(C)C)cc2[C@@H](c2ccc(OCc3ccc(C[N+]45CCN(CC4)CC5)cc3)cc2)[C@H]1O [maralixibat, 1-(4-((4-((4R,5R)-3,3-dibutyl-7-(dimethylamino)-4-hydroxy-1,1-dioxido-2,3,4,5-tetrahydrobenzo[b]thiepin-5-yl)phenoxy)methyl)benzyl)-1,4-diazabicyclo[2.2.2]octan-1-ium]
- Any TEAE, % (patients with PFIC; MRX-MRX (n = 47)): (1M)
- Most common TEAE: diarrhoea, % (patients with PFIC; MRX-MRX (n = 47)): (63.8) %
- Serious TEAE, % (patients with PFIC; MRX-MRX (n = 47)): (17.0) %
- Severe TEAE, % (patients with PFIC; MRX-MRX (n = 47)): (10.6) %
- TEAE leading to death, % (patients with PFIC; MRX-MRX (n = 47)): (2.1) %
- TEAE leading to discontinuation, % (patients with PFIC; MRX-MRX (n = 47)): (6.4) %
- Any TEAE, % (patients with PFIC; PBO-MRX (n = 38)): (92.1) %
- Most common TEAE: diarrhoea, % (patients with PFIC; PBO-MRX (n = 38)): (34.2) %
- Serious TEAE, % (patients with PFIC; PBO-MRX (n = 38)): (15.0) %
- Severe TEAE, % (patients with PFIC; PBO-MRX (n = 38)): (5.3) %
- early onset of diarrhea (most frequent TEAE) (patients with PFIC; overall): 51%
- new safety signals (patients with PFIC; overall): no new safety signals
- reduction of sBA levels (mean change from baseline) (subjects with PFIC [1]; [3]): over 150 μmon
- sBA difference from placebo (subjects with PFIC [1]; [3]): 160.403 μmon
- percentage of sBA response (sBA responders) (subjects with PFIC [1]; BSEP deficiency cohort, FIG. 13B): 35.7%
- reduction of sBA levels (mean change from baseline) (subjects with PFIC [1]; [4]): ~200 µmol/L
- sBA difference from placebo (subjects with PFIC [1]; [4]): 186.723 µmol/L
- improvements in serum bile acid levels (subjects with PFIC [1]; FIC1, MDR3, TJP2, MYO5B cohorts, FIG. 34A-B): Significant improvements
- reduction of sBA levels (mean change from baseline) (subjects with PFIC [1]; FIC1 cohort, FIG. 12A): ~100 µmol/L
- sBA difference from placebo (subjects with PFIC [1]; FIC1 cohort, FIG. 12A): 126.382 µmol/L
- percentage of sBA response (sBA responders) (subjects with PFIC [1]; FIG. 14B, sentence prints BSEP deficiency cohort): 45.5%
- reduction of sBA levels (mean change from baseline) (subjects with PFIC [1]; MDR3 cohort, FIG. 12B): 150 μmon
- sBA difference from placebo (subjects with PFIC [1]; MDR3 cohort, FIG. 12B): 135.089 μmon
- sBA levels lower at each time point (change from baseline over time) (subjects with PFIC [1]; Week 2 to Week 26, BSEP deficiency group, PFIC group, all study participants, FIG. 15A-C): more than 100 μmon
- improvements in serum bile acid levels (subjects with PFIC [1]; full-study population, FIG. 35B): statistically significant and clinically meaningful improvements
- improvements in serum bile acid levels (subjects with PFIC [1]; patients with no-variant found, FIG. 35D): demonstrated improvements
- difference in CSS improvement vs placebo group (subjects with PFIC [2]; [5]): 1.328 point
- improvement in CSS score relative to baseline (subjects with PFIC [2]; [5]): about 1.7 points
- difference in CSS improvement vs placebo group (subjects with PFIC [2]; PFIC cohort, FIG. 19B): 1.247 point
- improvement in CSS score relative to baseline (subjects with PFIC [2]; PFIC cohort, FIG. 19B): about 1.8 points
- improvements in pruritus (ItchRO(Obs)) (participants with ALGS; MRX during childhood, maintained into early adulthood, FIG. 31A): significant improvements
- improvements in pruritus (ItchRO(Obs)) (participants with ALGS; participants receiving MRX in early adulthood, FIG. 32A): significant improvements

— US20240173317A1, “METHODS FOR TREATING PROGRESSIVE FAMILIAL INTRAHEPATIC CHOLESTASIS” (MIRUM PHARMACEUTICALS, INC., priority 2022, published 2024)
